# Reference: patent US10849339B2, “Beverages containing rare sugars” (The Coca-Cola Company, priority 2013, dated 2020)
# Columns and labels:
# [1] = Sweetness evaluation against sucrose solutions in citric acid buffer, two panelists (Example 5); type: in vivo, human
# Procedure: First, the sweetness level of 2,4-dihydroxybenzoic acid was evaluated against three solutions of 1%, 2%, and 3% sucrose. Second, the sweetness level of a solution containing D-psicose and 500 ppm 2,4-dihydroxybenzoic acid was evaluated against 5%, 6.5%, and 7% sucrose solutions. All solutions were made in citric acid/potassium citrate buffer.
# (§1) Beverages were kept in the refrigerator overnight and tasted cold the following day. Two panelists evaluated the beverages. Bottles were removed from the refrigerator and about 20 ml of beverage poured in 2 oz-plastic cups. Mineral water was given for palate rinsing before tasting and between tasting different samples. Unsalted crackers were also given.
# [2] = sucrose part of the blend; from US20130041046A; cited from earlier work
# [3] = Sweetness evaluation against sucrose solutions in citric acid buffer (Example 7); type: in vivo, human
# Procedure: 4-Amino-5-(cyclohexyloxy)-2-methylquinoline-3-carboxylic acid was evaluated at 30 ppm. First, the sweetness level of the compound was evaluated against three solutions of 1%, 1.5%, and 2% sucrose. Second, the sweetness level of a solution containing D-psicose and 30 ppm amino-5-(cyclohexyloxy)-2-methylquinoline-3-carboxylic acid was evaluated against 5%, 6%, and 7% sucrose solutions.
# A solution containing a blend of sucrose and D-psicose with a total sweetness equivalent to 5.5% sucrose (3.5% sucrose and 2% SE D-psicose) was also made and evaluated for its sweetness with and without addition of 30 ppm 4-amino-5-(cyclohexyloxy)-2-methylquinoline-3-carboxylic acid. All solutions were made in citric acid/potassium citrate buffer.
# as §1, with “given for thorough palate rinsing” for “given for palate rinsing”
# [4] = Sucrose equivalence of D-psicose (background statement); type: in vivo, human; conditions: 2% (w/w) in a citric acid/potassium citrate matrix
# From the text: The sweetness of a non-sucrose sweetener can be measured against a sucrose reference by determining the non-sucrose sweetener's sucrose equivalence. Typically, taste panelists are trained to detect sweetness of reference sucrose solutions containing between 1-15% sucrose (w/v). Other non-sucrose sweeteners are then tasted at a series of dilutions to determine the concentration of the non-sucrose sweetener that is as sweet as a given percent sucrose reference. For example, if a 1% solution of a sweetener is as sweet as a 10% sucrose solution, then the sweetener is said to be 10 times as potent as sucrose, and has 10% sucrose equivalence.
# [5] = Taste test with eight panelists, sweetness rated against 1%, 1.5% and 2% sucrose controls (Example 1); type: in vivo, human
# Procedure: Taste tests were carried out with eight panelists. Bottles were removed from the refrigerator and about 50 ml of beverage was poured into 4 oz-plastic cups. Panelists were given mineral water to rinse their mouth before tasting and between tasting different samples. Unsalted crackers were also given to panelists to eat. Taste tests were done in two rounds: a first round in which a sample of D-psicose in citric acid/potassium citrate buffer and a sample of D-psicose and Reb-C in citric acid/potassium citrate buffer were evaluated, and a second round in which a sample of D-psicose in a lemon lime carbonated soft drink and a sample of D-psicose and Reb-C in a lemon lime carbonated soft drink were evaluated. In each round, panelists were asked to e choose the sweetest sample among the pair, then rate the sweetness level against control solutions of 1%, 1.5%, and 2% sucrose in citric acid/potassium citrate buffer.
# [6] = Sweetness evaluation against sucrose solutions in citric acid buffer, three panelists (Example 6); type: in vivo, human; conditions: D-psicose (5% SE) in citric acid buffer
# [7] = Sweetness evaluation against sucrose solutions in citric acid buffer, two panelists (Example 8); type: in vivo, human
# Procedure: The sweetness level of D-tagatose and FEMA GRAS FLAVOR 4701 was evaluated against 5%, 6%, and 7% sucrose solutions. All solutions were made in citric acid/potassium citrate buffer Beverages were made and chilled at 4° C. before tasting. Two panelists evaluated the beverages. Bottles were removed from the refrigerator and about 20 ml of beverage poured in 2 oz-plastic cups. Mineral water was given to panelists for palate rinsing before tasting and between tasting different samples. Unsalted crackers were also given.
# [8] = Sweetness recognition threshold concentration by taste testing; type: in vivo, human
# From the text: The term “sweetness recognition threshold concentration,” as generally used herein, is the lowest known concentration of a sweet compound that is perceivable by the human sense of taste, typically around 1.0% sucrose equivalence (1.0% SE). While the particular sweetness recognition threshold concentration between sweetness enhancers can vary, generally the concentration of sweetness enhancer is below 500 ppm, such as, for example, from about 5 ppm to about 300 ppm, from about 50 ppm to about 200 ppm or from about 100 ppm to about 200 ppm.
# Generally, the sweetness enhancers may enhance or potentiate the sweet taste of sweeteners without providing any noticeable sweet taste by themselves when present at or below the sweetness recognition threshold concentration of a given sweetness enhancer; however, the sweetness enhancers may themselves provide sweet taste at concentrations above their sweetness recognition threshold concentration. The sweetness recognition threshold concentration is specific for a particular enhancer and can vary based on the beverage matrix. The sweetness recognition threshold concentration can be easily determined by taste testing increasing concentrations of a given enhancer until greater than 1.0% sucrose equivalence in a given beverage matrix is detected. […]
compound,measurement,setting,value
"O=C(O)c1ccc(O)cc1O [2,4-dihydroxybenzoic acid]","sweetness against 1%, 2% and 3% sucrose solutions",[1]; 500 ppm alone in citric acid buffer,< 1 % sucrose
same,increase of detected sucrose equivalence,"[1]; added at or below its sweetness recognition threshold to a beverage containing D-psicose, embodiment statement",about 1.5%
Cc1nc2cccc(OC3CCCCC3)c2c(N)c1C(=O)O [4-amino-5-(cyclohexyloxy)-2-methylquinoline-3-carboxylic acid],sweetness with 30 ppm enhancer in combination with sucrose individually,[2],7%
same,sweetness with 30 ppm enhancer in combination with D-psicose individually,[3]; D-psicose part of the blend (2% SE),3 % SE
same,increase of detected sucrose equivalence,"[3]; added at or below its sweetness recognition threshold, b195 after b194 (D-psicose and sucrose), embodiment statement",about 5.0%
O=C(CO)[C@H](O)[C@H](O)[C@H](O)CO [D-psicose],sucrose equivalence,[4],about 1.26%
same,sweetness against 5% and 6.5% sucrose solutions,"[1]; D-psicose solution (5% SE), citric acid buffer",5 % sucrose
same,sweetness against 5% and 6% sucrose solutions,[3]; D-psicose (5% SE) in citric acid buffer,5 % sucrose
same,sweetness equivalence,[5]; 2% D-psicose in the absence of Rebaudioside C,1.2 % sucrose
same,detected sucrose equivalence before addition of Rebaudioside C,"[5]; lemon-lime carbonated soft drink, citric acid buffer, D-psicose about 2% by weight, embodiment statement",about 1.2%
same,sweetness against 5% and 6.5% sucrose solutions,[6],5 % sucrose
O=C(CO)[C@@H](O)[C@@H](O)[C@H](O)CO [D-tagatose],sweetness against 5% and 6% sucrose solutions,[7]; D-tagatose (5% SE) in citric acid buffer,5 % sucrose
CCCNC(=O)C(C)(C)COc1cccc2c1C(N)=NS(=O)(=O)N2 [FEMA GRAS flavor 4701],sucrose equivalence,[7]; 15 ppm alone in citric acid buffer,less than 1.0%
Rebaudioside C,sweetness recognition threshold concentration,[8]; in a citric acid/potassium citrate buffer,270 ppm
same,sweetness recognition threshold concentration,[8]; in cola,about 345 ppm
same,sucrose equivalence,"[5]; 220 ppm in citric acid/potassium citrate buffer, alone",less than 1.0%
same,detected sucrose equivalence after addition of Rebaudioside C,"[5]; about 220 ppm added to lemon-lime carbonated soft drink, citric acid buffer, D-psicose about 2% by weight, embodiment statement",about 2.0%
